Publication PMC5548886 (Cancer Medicine, 2017)
Read-outs that look alike come from different tables or passages of the source.

Tests used:
[1] = Pharmacokinetics, unchanged RAF265 in plasma; format: in vivo, human; settings: for Cmin, Mean (SD): Steady State (average of troughs from Cycle 2 Day 1 onwards); for AUC(0-t) / Cmax / Tmax / half-life: human, plasma, oral; for AUC(0-t): read-out: AUC(0-tlast), Mean (SD); for Cmax: read-out: Cmax, Mean (SD); for Tmax: read-out: Tmax, Median
Method: PK parameters included the maximum observed concentration (C max), time to reach C max (T max), area under the curve from time 0 to last measurable concentration (AUClast), time point of the last measurable concentration (T last), and terminal half‐life of elimination phase (T 1/2). Cycle 1 Day 1 and day 15, reported PK parameters include C max, T max, AUClast and T last. Following log‐transformation, the PK parameters AUC and C max from the PK run‐in were analyzed separately using a mixed effects model fitting terms for dose and patient (Patient treated as a random factor)‐ln(PK parameter) = a + b*ln(Dose)+error. In this model, the dose‐exposure relationship is mainly characterized by the slope parameter b. A slope lower (higher) than 1 indicates an under (over) proportional dose‐exposure relationship. The point estimate and associated 90% CI for the slope parameter were determined for safety considerations.

p-AKT473 = assay: IHC of tumor biopsies, H-score change on-treatment vs pretreatment; format: in vivo, human
Method: Pharmacodynamic markers were examined using peripheral blood samples, tumor and nevi biopsies (when available) and tumor imaging. BRAF mutation status was determined by Sanger sequencing. Pharmacodynamic markers analyzed, in available tumor/nevus samples obtained before treatment or archival tissue and during treatment on cycle 1, day 8 or day 15, including cytoplasmic p‐MEK, p‐ERK, BIM, c‐KIT, p‐AKT473, pS6 and PTEN, and nuclear p‐ERK, Ki‐67, PARP, cyclin D1, MITF, p27, and p53. Biomarker expression was determined by calculating the percentage of change in the H‐score (14) between on‐treatment and fresh/archival pretreatment specimens. Blood levels of VEGFR‐2 and were assessed before and at multiple time points while on treatment using enzyme‐linked immunosorbent assay (ELISA). […] Changes in standard uptake value (SUV) were determined by a blinded, independent central imaging review panel. Complete metabolic response (CMR) was complete resolution of tumor FDG‐PET uptake so SUV is the same as background. Partial metabolic response (PMR) decrease in sum of the tumor SUV of ≥25% from the baseline scan. Progressive metabolic disease (PMD) was defined as an increase in tumor SUV of ≥25% from the baseline scan, or the appearance of new FDG‐PET uptake in metastatic lesions. Stable metabolic disease (SMD) was defined as a change in tumor SUV between the PMR and PMD criteria.

[2] = 2 mg, Cycle 1 Day 15, DL 1, MD 2 mg
[3] = 3 mg, Cycle 1 Day 15, DL 2, MD 3 mg
[4] = 6 mg, Cycle 1 Day 15, DL 3, MD 6 mg
[5] = 8 mg, Cycle 1 Day 1, DL 1, LD 8 mg
[6] = 10 mg, First dose (PK run-in), DL 1, 10 mg
[7] = 12 mg, Cycle 1 Day 15, DL 4, MD 12 mg
[8] = 16 mg, Cycle 1 Day 1, DL 2, LD 16 mg
[9] = 20 mg, First dose (PK run-in), DL 2, 20 mg
[10] = 24 mg, Cycle 1 Day 15, DL 5, MD 24 mg
[11] = 29 mg, Cycle 1 Day 1, DL 3, LD 29 mg
[12] = 36 mg, First dose (PK run-in), DL 3, 36 mg
[13] = 48 mg, Cycle 1 Day 15, DL 6, MD 48 mg
[14] = 58 mg, Cycle 1 Day 1, DL 4, LD 58 mg
[15] = 67 mg, Cycle 1 Day 15, DL 7, MD 67 mg
[16] = 67 mg, Cycle 1 Day 15, DL 7.1, MD 67 mg
[17] = 72 mg, First dose (PK run-in), DL 4, 72 mg
[18] = 115 mg, Cycle 1 Day 1, DL 5, LD 115 mg
[19] = 144 mg, First dose (PK run-in), DL 5, 144 mg
[20] = 230 mg, Cycle 1 Day 1, DL 6, LD 230 mg
[21] = 288 mg, Cycle 1 Day 1, DL 7.1, LD 288 mg as three doses
[22] = 288 mg, First dose (PK run-in), DL 6, 288 mg
[23] = 322 mg, Cycle 1 Day 1, DL 7, LD 322 mg
[24] = 403 mg, First dose (PK run-in), DL 7, 403 mg

Cn1c(Nc2ccc(C(F)(F)F)cc2)nc2cc(Oc3ccnc(-c4ncc(C(F)(F)F)[nH]4)c3)ccc21 [RAF265]
Tlast, Median ([1]; Cycle 1 Day 1, DL 1, LD 8 mg): 25 h
Tlast, Median ([1]; Cycle 1 Day 1, DL 2, LD 16 mg): 22.9 h
Tlast, Median ([1]; Cycle 1 Day 1, DL 3, LD 29 mg): 23.8 h
Tlast, Median ([1]; Cycle 1 Day 1, DL 4, LD 58 mg): 24.4 h
Tlast, Median ([1]; Cycle 1 Day 1, DL 5, LD 115 mg): 24 h
Tlast, Median ([1]; Cycle 1 Day 1, DL 6, LD 230 mg): 24.1 h
Tlast, Median ([1]; Cycle 1 Day 1, DL 7, LD 322 mg): 24 h
Tlast, Median ([1]; Cycle 1 Day 1, DL 7.1, LD 288 mg as three doses): 23.8 h
Tlast, Median ([1]; Cycle 1 Day 15, DL 1, MD 2 mg): 25.3 h
Tlast, Median ([1]; Cycle 1 Day 15, DL 2, MD 3 mg): 22.5 h
Tlast, Median ([1]; Cycle 1 Day 15, DL 3, MD 6 mg): 24.1 h
Tlast, Median ([1]; Cycle 1 Day 15, DL 4, MD 12 mg): 24 h
Tlast, Median ([1]; Cycle 1 Day 15, DL 5, MD 24 mg): 24 h
Tlast, Median ([1]; Cycle 1 Day 15, DL 6, MD 48 mg): 23.7 h
Tlast, Median ([1]; Cycle 1 Day 15, DL 7, MD 67 mg): 23.4 h
Tlast, Median ([1]; Cycle 1 Day 15, DL 7.1, MD 67 mg): 23.8 h
Tlast, Median ([1]; First dose (PK run-in), DL 1, 10 mg): 168 h
Tlast, Median ([1]; First dose (PK run-in), DL 2, 20 mg): 168 h
Tlast, Median ([1]; First dose (PK run-in), DL 3, 36 mg): 168 h
Tlast, Median ([1]; First dose (PK run-in), DL 4, 72 mg): 167 h
Tlast, Median ([1]; First dose (PK run-in), DL 5, 144 mg): 167 h
Tlast, Median ([1]; First dose (PK run-in), DL 6, 288 mg): 167 h
Tlast, Median ([1]; First dose (PK run-in), DL 7, 403 mg): 168 h
Cmin, Mean (SD) ([1]; DL 1, MD 2 mg): 1.23 (0.22) ug/mL
Cmin, Mean (SD) ([1]; DL 2, MD 3 mg): 1.51 (0.82) ug/mL
Cmin, Mean (SD) ([1]; DL 3, MD 6 mg): 1.82 (0.28) ug/mL
Cmin, Mean (SD) ([1]; DL 4, MD 12 mg): 4.31 (1.22) ug/mL
Cmin, Mean (SD) ([1]; DL 5, MD 24 mg): 7.31 (1.99) ug/mL
Cmin, Mean (SD) ([1]; DL 6, MD 48 mg): 13.1 (5.57) ug/mL
Cmin, Mean (SD) ([1]; DL 7, MD 67 mg): 21.8 (3.76) ug/mL
Cmin, Mean (SD) ([1]; DL 7.1, MD 67 mg): 15.5 (7.47) ug/mL
dose dependence of mean Cmax and AUC ([1]; across dose levels): increased nearly proportionally with dose
AUC(0-t) [1, 2]: 2670 ng·h/mL
Cmax [1, 2]: 130 ng/mL
Tmax [1, 2]: 3 h
AUC(0-t) [1, 3]: 2300 ng·h/mL
Cmax [1, 3]: 120 ng/mL
Tmax [1, 3]: 3.07 h
AUC(0-t) [1, 4]: 4150 ng·h/mL
Cmax [1, 4]: 200 ng/mL
Tmax [1, 4]: 2.52 h
AUC(0-t) [1, 5]: 2080 ng·h/mL
Cmax [1, 5]: 140 ng/mL
Tmax [1, 5]: 4 h
AUC(0-t) [1, 6]: 6200 ng·h/mL
Cmax [1, 6]: 140 ng/mL
half-life ([1]; 10 mg, First dose (PK run-in), DL 1, 10 mg, read-out: T1/2, Median (converted)): 287 h
Tmax [1, 6]: 3 h
AUC(0-t) [1, 7]: 8590 ng·h/mL
Cmax [1, 7]: 420 ng/mL
Tmax [1, 7]: 5.13 h
AUC(0-t) [1, 8]: 2650 ng·h/mL
Cmax [1, 8]: 170 ng/mL
Tmax [1, 8]: 3 h
AUC(0-t) [1, 9]: 8770 ng·h/mL
Cmax [1, 9]: 150 ng/mL
half-life ([1]; 20 mg, First dose (PK run-in), DL 2, 20 mg, read-out: T1/2, Median (converted)): 209 h
Tmax [1, 9]: 2 h
AUC(0-t) [1, 10]: 16100 ng·h/mL
Cmax [1, 10]: 850 ng/mL
Tmax [1, 10]: 2.75 h
AUC(0-t) [1, 11]: 3930 ng·h/mL
Cmax [1, 11]: 276 ng/mL
Tmax [1, 11]: 3.53 h
AUC(0-t) [1, 12]: 12100 ng·h/mL
Cmax [1, 12]: 260 ng/mL
half-life ([1]; 36 mg, First dose (PK run-in), DL 3, 36 mg, read-out: T1/2, Median (converted)): 127 h
Tmax [1, 12]: 2.52 h
AUC(0-t) [1, 13]: 28500 ng·h/mL
Cmax [1, 13]: 1650 ng/mL
Tmax [1, 13]: 3.93 h
AUC(0-t) [1, 14]: 7280 ng·h/mL
Cmax [1, 14]: 500 ng/mL
Tmax [1, 14]: 3 h
AUC(0-t) [1, 15]: 46800 ng·h/mL
Cmax [1, 15]: 2650 ng/mL
Tmax [1, 15]: 4 h
AUC(0-t) [1, 16]: 35400 ng·h/mL
Cmax [1, 16]: 1830 ng/mL
Tmax [1, 16]: 3 h
AUC(0-t) [1, 17]: 22600 ng·h/mL
Cmax [1, 17]: 540 ng/mL
half-life ([1]; 72 mg, First dose (PK run-in), DL 4, 72 mg, read-out: T1/2, Median (converted)): 174 h
Tmax [1, 17]: 2.01 h
AUC(0-t) [1, 18]: 15700 ng·h/mL
Cmax [1, 18]: 1070 ng/mL
Tmax [1, 18]: 2 h
AUC(0-t) [1, 19]: 51800 ng·h/mL
Cmax [1, 19]: 1060 ng/mL
half-life ([1]; 144 mg, First dose (PK run-in), DL 5, 144 mg, read-out: T1/2, Median (converted)): 182 h
Tmax [1, 19]: 2.15 h
AUC(0-t) [1, 20]: 28100 ng·h/mL
Cmax [1, 20]: 2250 ng/mL
Tmax [1, 20]: 2.58 h
AUC(0-t) [1, 21]: 18400 ng·h/mL
Cmax [1, 21]: 1130 ng/mL
Tmax [1, 21]: 22.3 h
AUC(0-t) [1, 22]: 99800 ng·h/mL
Cmax [1, 22]: 2310 ng/mL
half-life ([1]; 288 mg, First dose (PK run-in), DL 6, 288 mg, read-out: T1/2, Median (converted)): 183 h
Tmax [1, 22]: 3 h
AUC(0-t) [1, 23]: 39000 ng·h/mL
Cmax [1, 23]: 2720 ng/mL
Tmax [1, 23]: 3 h
AUC(0-t) [1, 24]: 137000 ng·h/mL
Cmax [1, 24]: 2680 ng/mL
half-life ([1]; 403 mg, First dose (PK run-in), DL 7, 403 mg, read-out: T1/2, Median (converted)): 294 h
Tmax [1, 24]: 3 h
half-life ([1]; patients, read-out: half-life (converted)): ~192 h
half-life ([1]; patients, read-out: serum half-life (converted)): ~200 h
PAKT473 % change vs pretreatment, Mean (SD) (p-AKT473; All patients, n 19): +1.2 (105.4) %
PAKT473 % change vs pretreatment, Median (p-AKT473; All patients, n 19): -4.6%
PAKT473 % change vs pretreatment, Mean (SD) (p-AKT473; DL 5, n 1): -4.6%
PAKT473 % change vs pretreatment, Median (p-AKT473; DL 5, n 1): -4.6%
p-AKT, median decrease (p-AKT473; DL 6): 46.7%
PAKT473 % change vs pretreatment, Mean (SD) (p-AKT473; DL 6, n 4): -48.4(55.9) %
PAKT473 % change vs pretreatment, Median (p-AKT473; DL 6, n 4): -46.7%
PAKT473 % change vs pretreatment, Mean (SD) (p-AKT473; DLs 1 - 4, n 11): +20.1(132.9) %
PAKT473 % change vs pretreatment, Median (p-AKT473; DLs 1 - 4, n 11): -20%
PAKT473 % change vs pretreatment, Mean (SD) (p-AKT473; DLs 7 and 7.1, n 3): 0%
PAKT473 % change vs pretreatment, Median (p-AKT473; DLs 7 and 7.1, n 3): 0%
